No end group written: not given here.
Columns and labels:
Assay in all cases: biochemical
DR1 (DRB1*0101) = DR1 (DRB1*0101) (Homo sapiens, UniProt P01903+P01911, A100R/D57E/F55L/F60I/F76Y/I96L/L162R/M171V/P40L/Q125E/R42F/V115G/Y59C); format: binding
DR4w4 (DRB1*0401) = DR4w4 (DRB1*0401) (Homo sapiens, UniProt P01903+P01911, A100K/A169T/F76Y/I96L/K127E/L162R/M171V/N62H/P40V/Q125Y/R42H/S133A/S149N/S66Y/V115G/V209L/W38E); format: binding
DR7 (DRB1*0701) = DR7 (DRB1*0701) (Homo sapiens, UniProt P01903+P01911, A100R/A102G/A103Q/D57E/D86V/E43K/F76Y/K127E/L162R/M171V/P40G/Q125H/Q99D/R33Q/R42Y/R54Q/S133A/S66F/T210M/V115G/Y107V/Y59L/Y89S); format: binding
DRB1*0301 = DRB1*0301 (Homo sapiens, UniProt P01903+P01911, A100K/A102G/A103R/A169T/F55Y/I96L/K41T/L162R/M171V/P40S/Q125H/Q178H/Q39Y/R42S/S66N/T106N/T262R/W38E/Y61H); format: binding
Sequence of DRB1*0301 (P01903 26-254 limits assumed, other chains not shown): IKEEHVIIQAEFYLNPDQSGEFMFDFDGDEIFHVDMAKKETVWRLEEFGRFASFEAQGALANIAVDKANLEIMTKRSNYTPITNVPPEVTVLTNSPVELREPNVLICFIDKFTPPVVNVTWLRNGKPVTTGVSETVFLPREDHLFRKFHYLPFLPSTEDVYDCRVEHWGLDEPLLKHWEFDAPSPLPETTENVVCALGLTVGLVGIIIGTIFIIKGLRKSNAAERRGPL

DRB1*0405 = DRB1*0405 (Homo sapiens, UniProt P01903+P01911, A100R/A169T/D86S/F76Y/I96L/K127E/L162R/M171V/N62H/P40V/Q125Y/R42H/S133A/S149N/S66Y/V115G/V209L/W38E); format: binding
DRB1*0802 = DRB1*0802 (Homo sapiens, UniProt P01903+P01911, A100R/A103L/A169T/F76Y/H45Y/I96F/K41T/L162R/M171V/P40S/Q125H/Q178H/Q39Y/Q99D/R218S/R42G/S66Y/V115G/W38E); format: binding
DRB1*0901 = DRB1*0901 (Homo sapiens, UniProt P01903+P01911, A100R/A103E/D57H/D86V/F55Y/F60I/F76Y/I96F/K127E/L162R/M171V/P40D/Q125H/Q99R/R33Q/R42F/S133A/S66N/T210M/V115G/W38K/Y107V/Y59G/Y89S); format: binding
DRB1*1201 = DRB1*1201 (Homo sapiens, UniProt P01903+P01911, A100R/A169T/D57E/D86V/F55L/H45Y/K41T/L162R/M171V/P40S/Q125H/Q178H/Q39Y/Q99D/R42G/S66L/T262R/V114A/V67L/W38E/Y59H/Y61H/Y89S); format: binding
DRB1*1302 = DRB1*1302 (Homo sapiens, UniProt P01903+P01911, A100E/A169T/K41T/L162R/M171V/P40S/Q125H/Q178H/Q39Y/Q99D/R42S/S66N/T262R/V115G/W38E/Y61H); format: binding
Sequence of DRB1*1302 (P01903 26-254 limits assumed, other chains not shown): as above

DRB4*0101 = DRB4*0101 (Homo sapiens, UniProt P01903+P13762, G164S); format: binding
DRB1*1101 = DRB1*1101 (Homo sapiens, UniProt P01903+P01911, A100R/A169T/A87E/I96F/K41T/L162R/M171V/P40S/Q125H/Q178H/Q39Y/Q99D/R42S/S66Y/T262R/V115G/W38E); settings: Binding affinity DRB1 *1101
Sequence of DRB1*1101 (P01903 26-254 limits assumed, other chains not shown): as above

DRB5*0101 = DRB5*0101 (Homo sapiens, UniProt P01903+Q30154); settings: Binding affinity DRB5 *0101
DRB1*1501 = DRB1*1501 (Homo sapiens, UniProt P01903+P01911); format: binding

| Molecule | IC50 (DR1 (DRB1*0101)) | IC50 (DR4w4 (DRB1*0401)) | IC50 (DR7 (DRB1*0701)) | IC50 (DRB1*0301) | IC50 (DRB1*0405) | IC50 (DRB1*0802) | IC50 (DRB1*0901) | IC50 (DRB1*1201) | IC50 (DRB1*1302) | IC50 (DRB4*0101) | IC50 (DRB1*1101) | IC50 (DRB5*0101) | IC50 (DRB1*1501) |
| --- | --- | --- | --- | --- | --- | --- | --- | --- | --- | --- | --- | --- | --- |
| CC[C@H](C)[C@H](NC(=O)[C@H](Cc1c[nH]c2ccccc12)NC(=O)[C@H](CCC(=O)O)NC(=O)[C@@H]1CCCN1)C(=O)N[C@@H](CCC(=O)O)C(=O)N[C@@H](CCCNC(=N)N)C(=O)N[C@@H](CCC(N)=O)C(=O)N[C@H](C(=O)N[C@H](C(=O)N[C@@H](CC(C)C)C(=O)N[C@@H](CCC(N)=O)C(=O)N[C@@H](Cc1c[nH]cn1)C(=O)N[C@@H](CO)C(=O)N[C@@H](Cc1ccccc1)C(=O)N[C@@H](CC(N)=O)C(=O)O)C(C)C)[C@@H](C)O [Peptide 89.0049] | 5.24 µM | 0.018 µM | 2.87 µM | 0.21 µM | 0.44 µM | 0.707 µM | 4.52 µM | 7.98 µM | 0.938 µM | 0.002 µM | 0.401 µM | > 20 µM | – |
| CC[C@H](C)[C@H](NC(=O)[C@H](Cc1c[nH]cn1)NC(=O)[C@H](C)NC(=O)[C@H](Cc1ccc(O)cc1)NC(=O)[C@H](CC(C)C)NC(=O)[C@@H](NC(=O)[C@H](C)NC(=O)[C@@H]1CCCN1C(=O)[C@H](CCCCN)NC(=O)[C@@H](NC(=O)[C@H](CC(C)C)NC(=O)[C@@H](NC(=O)[C@H](CCCCN)NC(=O)[C@@H](N)Cc1ccccc1)[C@@H](C)O)[C@@H](C)CC)[C@@H](C)O)C(=O)N[C@@H](CCC(N)=O)C(=O)O [Peptide 89.0082] | 0.023 µM | 0.123 µM | – | 0.825 µM | 0.014 µM | – | 0.57 µM | 0.084 µM | 0.045 µM | 0.02 µM | 0.0055 µM | 2.43 µM | – |
| CC(C)C[C@H](NC(=O)[C@H](CCC(N)=O)NC(=O)[C@H](CCCCN)NC(=O)[C@@H](NC(=O)[C@H](CC(C)C)NC(=O)[C@H](CCC(N)=O)NC(=O)[C@@H](NC(=O)[C@H](C)NC(=O)[C@H](CO)NC(=O)[C@@H](NC(=O)[C@@H](NC(=O)[C@H](CC(=O)O)NC(=O)[C@@H](N)CC(=O)O)[C@@H](C)O)C(C)C)[C@@H](C)O)C(C)C)C(=O)N[C@@H](CCC(N)=O)C(=O)N[C@@H](Cc1c[nH]cn1)C(=O)O [Peptide 89.0162] | – | 0.1 µM | – | 0.241 µM | 0.674 µM | – | 1.97 µM | 0.275 µM | 0.073 µM | 0.128 µM | 0.943 µM | 0.578 µM | 0.601 µM |
| AKALQAIELQMMLET [Peptide 89.0171] | 0.016 µM | 0.078 µM | 0.051 µM | 1.46 µM | 0.798 µM | > 20 µM | 0.084 µM | 0.243 µM | – | 2.55 µM | 2.4 µM | 0.284 µM | 8.48 µM |
| DNDIVDDSEIAYKYA [Peptide 90.0037] | > 20 µM | 4.62 µM | > 20 µM | 0.028 µM | > 20 µM | > 20 µM | > 20 µM | 5.3 µM | > 20 µM | > 20 µM | > 20 µM | > 20 µM | – |
| DNDVMDDSEIAYKYA [Peptide 90.0069] | > 20 µM | 3.68 µM | – | 0.053 µM | 10.1 µM | > 20 µM | > 20 µM | 12.7 µM | > 20 µM | > 20 µM | > 20 µM | > 20 µM | 8.22 µM |
| DNELTDDSDIAYYYA [Peptide 90.0085] | > 20 µM | > 20 µM | > 20 µM | 0.098 µM | > 20 µM | > 20 µM | > 20 µM | > 20 µM | > 20 µM | > 20 µM | > 20 µM | > 20 µM | – |
| EDEIDTDLDGFIDDS [Peptide 90.0126] | 0.32 µM | > 20 µM | – | 0.128 µM | 1.02 µM | – | – | 0.138 µM | 0.067 µM | 0.823 µM | > 20 µM | – | 0.27 µM |
| EIYIIEEDTCTMVTG [Peptide 90.0203] | 1.36 µM | 0.258 µM | – | 0.273 µM | 3.09 µM | > 20 µM | > 20 µM | > 20 µM | 0.577 µM | 1.74 µM | – | > 20 µM | 6.5 µM |
| ENSIQADTEAARALF [Peptide 90.0078] | 3.91 µM | > 20 µM | – | 0.62 µM | > 20 µM | > 20 µM | > 20 µM | 7.44 µM | > 20 µM | > 20 µM | > 20 µM | > 20 µM | > 20 µM |
| FKYFKEDAAKYSKTQ [Peptide 90.0206] | 0.063 µM | 0.019 µM | – | 0.451 µM | 6.86 µM | 0.835 µM | 1.7 µM | 0.399 µM | 1.7 µM | > 20 µM | 0.303 µM | – | 0.865 µM |
| IIHLKGDANILKCLR [Peptide 90.0197] | 0.069 µM | 0.064 µM | 3.05 µM | 0.026 µM | 6.5 µM | 2.99 µM | 14.1 µM | 5.03 µM | 0.066 µM | 0.713 µM | – | 2.46 µM | – |
| KNRLTVAKLMSNLLS [Peptide 89.0064] | 0.0056 µM | 0.021 µM | 0.0028 µM | 9.72 µM | 0.012 µM | 0.58 µM | 2.68 µM | 0.089 µM | 0.014 µM | 0.025 µM | 1.58 µM | – | – |
| LKAICIEKQSRAAKR [Peptide 90.0032] | 0.259 µM | 0.307 µM | – | 0.021 µM | > 20 µM | 0.273 µM | 13.4 µM | 11.8 µM | – | 0.029 µM | 0.545 µM | – | 2.06 µM |
| LNTVKIPNTVSVSTG [Peptide 89.0178] | 0.051 µM | 0.824 µM | 5.48 µM | 0.065 µM | 3.02 µM | 3.69 µM | 1.14 µM | 0.361 µM | – | 2.58 µM | 0.976 µM | – | 12.7 µM |
| MLAVFKDTYGLSFTD [Peptide 90.0050] | – | 0.829 µM | – | 0.045 µM | > 20 µM | 7.94 µM | 1.57 µM | 7.43 µM | 1.24 µM | > 20 µM | 2.29 µM | 18.3 µM | – |
| WKLIRMECAIMYTAR [Peptide 90.0245] | – | 0.328 µM | 4.61 µM | 0.203 µM | 0.768 µM | 9.17 µM | 4.87 µM | 0.195 µM | – | 0.027 µM | – | 1.24 µM | 2.11 µM |
| YKTLFVDVTSTYHWT [Peptide 90.0241] | 4.03 µM | 0.075 µM | 0.647 µM | 0.056 µM | 0.549 µM | 14.1 µM | 2.23 µM | 3.9 µM | 0.071 µM | > 20 µM | 4.2 µM | 5.5 µM | – |

— patent US9340577B2, “HLA binding motifs and peptides and their uses” (priority 1992, dated 2016)
